Measurements taken from publication PMC11873037 (Nature Communications, 2025).

Tests used:
ChREBPα/14-3-3β [1] = molecular target: T1, ChREBPα/14-3-3β (Homo sapiens, UniProt P31946+Q9NP71); test: FA compound titration, stabilization of FITC-ChREBPα peptide/14-3-3β; type: binding; conditions: for stabilization of the ChREBPα/14-3-3 PPI, in words: FA-based compound titrations; for EC50: EC50, FITC-ChREBPα peptide 10 nM, 14-3-3β 150 nM, mean ± SD, n = 2
T1 sequence (P31946 1-246): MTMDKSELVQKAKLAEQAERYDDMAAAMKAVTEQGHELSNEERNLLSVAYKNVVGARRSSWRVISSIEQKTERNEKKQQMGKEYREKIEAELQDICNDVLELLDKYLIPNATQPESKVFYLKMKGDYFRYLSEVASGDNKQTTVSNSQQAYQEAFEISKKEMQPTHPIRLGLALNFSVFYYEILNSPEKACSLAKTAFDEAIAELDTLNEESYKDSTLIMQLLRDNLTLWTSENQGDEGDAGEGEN
T1 sequence (Q9NP71 117-142 limits assumed): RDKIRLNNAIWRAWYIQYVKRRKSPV

INS-1 cells [2] = test: cytotoxicity in low glucose; type: cell-based, rat
INS-1 cells [3] = test: cell death in glucolipotoxic conditions; type: cell-based, rat; conditions: for cell death in glucolipotoxic conditions, dose response: 5 and 10 μM, 20 mM glucose+500 µM palmitate, 48 h
ChREBPα = molecular target: T2, ChREBPα (Rattus norvegicus, UniProt Q8VIP2); test: immunostaining, nuclear localization of ChREBPα in INS-1 cells; type: cell-based
T2 sequence (Q8VIP2 1-865): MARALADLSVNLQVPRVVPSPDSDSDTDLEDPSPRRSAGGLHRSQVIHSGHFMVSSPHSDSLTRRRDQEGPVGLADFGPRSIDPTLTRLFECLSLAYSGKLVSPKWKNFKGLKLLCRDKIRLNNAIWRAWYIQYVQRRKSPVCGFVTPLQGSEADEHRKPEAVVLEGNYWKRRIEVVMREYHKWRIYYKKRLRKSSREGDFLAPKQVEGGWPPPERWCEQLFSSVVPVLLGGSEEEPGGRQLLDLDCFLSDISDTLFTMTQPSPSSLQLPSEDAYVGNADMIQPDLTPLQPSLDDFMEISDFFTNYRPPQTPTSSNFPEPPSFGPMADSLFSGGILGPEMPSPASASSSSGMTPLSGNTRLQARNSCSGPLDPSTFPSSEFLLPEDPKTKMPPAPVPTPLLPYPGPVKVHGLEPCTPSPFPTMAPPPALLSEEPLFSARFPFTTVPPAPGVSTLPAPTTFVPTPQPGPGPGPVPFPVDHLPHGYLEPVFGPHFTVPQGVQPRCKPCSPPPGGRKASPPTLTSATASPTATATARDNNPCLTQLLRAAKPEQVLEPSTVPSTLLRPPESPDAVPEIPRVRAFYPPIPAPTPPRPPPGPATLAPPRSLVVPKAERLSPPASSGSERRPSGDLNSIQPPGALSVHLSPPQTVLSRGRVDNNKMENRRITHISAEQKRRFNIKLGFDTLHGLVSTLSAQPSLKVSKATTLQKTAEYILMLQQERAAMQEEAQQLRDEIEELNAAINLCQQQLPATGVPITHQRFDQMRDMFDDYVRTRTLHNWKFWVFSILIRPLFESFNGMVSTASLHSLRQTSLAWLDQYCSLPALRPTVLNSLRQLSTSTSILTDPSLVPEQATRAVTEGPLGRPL

[4] = tested on: BRAF, CRAF, p65, USP8, ERα, Pin1, ExoS peptides/14-3-3β; test: FA selectivity studies, statement over all other client peptides; type: binding; conditions: up to 100 µM
[5] = tested on: ChREBPα/all seven 14-3-3 isoforms; test: FA protein titrations, statement over all seven 14-3-3 isoforms; type: binding; conditions: 100 µM 43
[6] = tested on: TAZ, ExoS, ERα, CRAF, ChREBP peptides/14-3-3 isoforms (γ, ζ, σ); type: binding; conditions: 100 µM 43
INS-1 cells [7] = test: kinetics of cell proliferation, total cell numbers; type: cell-based, rat; conditions: 10 μM 43
human islets, β-cells = test: SPARKL assay, β-cell death in glucolipotoxicity; type: cell-based; conditions: 10 µM; 20 mM glucose+500 μM palmitate
primary human islets [8] = test: glucose-stimulated insulin secretion; type: cell-based; conditions: pre-treated 24 h, high glucose
primary human islets [9] = test: insulin secretion stimulation index in response to KCl; type: cell-based; conditions: 30 mM KCl
primary human islets [10] = test: total insulin content; type: cell-based
[11] = tested on: dispersed human islet cells; test: β-cell death after adenoviral ChREBPβ overexpression or shRNA; type: cell-based; conditions: 10 μM 43
ChREBPα/14-3-3 = test: proximity ligation assay ChREBPα and pan 14-3-3; type: cell-based, rat; conditions: high (20 mM) glucose
NFATC1/14-3-3 = test: proximity ligation assay NFATC1 and pan 14-3-3; type: cell-based, rat; conditions: 10 μM 43; high (20 mM) glucose
ChREBP = molecular target: T3, ChREBP (Rattus norvegicus, UniProt Q8VIP2); test: CRISPR/Cas9 engineered INS-1 cells; type: cell-based; conditions: high glucose and glucolipotoxic conditions
T3 sequence (Q8VIP2 1-865): T2 sequence (Q8VIP2 1-865)

ChREBPβ [12] = test: qPCR ChREBPβ mRNA in human islets; type: cell-based; conditions: 10 µM 43, 24 h; high glucose or glucolipotoxicity
INS = test: qPCR INS mRNA in human islets; type: cell-based; conditions: 10 µM 43, 24 h
PDX1 [13] = test: qPCR PDX1 mRNA in human islets; type: cell-based; conditions: 10 µM 43, 24 h
ALDH1A3 = test: qPCR ALDH1A3 mRNA in human islets; type: cell-based
[14] = tested on: β-cell maturity markers or glucose sensing and processing genes; test: qPCR other β-cell maturity markers or glucose sensing and processing genes; type: cell-based, human; conditions: 10 µM 43, 24 h
ChREBPβ [15] = test: immunostaining c-term ChREBP; type: cell-based, human; conditions: 48 h
PDX1 [16] = test: immunostaining PDX1 protein in dispersed islets; type: cell-based, human; conditions: 48 h
human TXNIP promoter = test: luciferase reporter driven by the human TXNIP promoter in INS-1 cells; type: cell-based, rat; conditions: 10 µM 43, 24 h
INS-1 cells [17] = test: calcium imaging; type: cell-based, rat
INS-1 cells [18] = test: ATP/ADP measurements; type: cell-based, rat; conditions: 10 μM 43; high (20 mM) glucose
ChREBPα/14-3-3β [19] = molecular target: T1, ChREBPα/14-3-3β; conditions: fit of 2D titration with thermodynamic equilibrium model; compound 0–500 µM
ChREBPα/14-3-3β [20] = molecular target: T1, ChREBPα/14-3-3β; test: biochemical

Structure (SMILES): NS(=O)(=O)c1ccccc1OCC(=O)NCCc1ccccc1 [compound 24]
- stabilization of the ChREBPα/14-3-3 PPI, in words (ChREBPα/14-3-3β [1]): inactive

Structure (SMILES): O=C(COc1ccccc1P(=O)(O)O)NCCc1ccc(OCc2ccccn2)cc1 [compound 9]
- EC50 (ChREBPα/14-3-3β [1]): 7.6 ± 0.5 µM
- stabilization of the ChREBPα/14-3-3 PPI, in words (ChREBPα/14-3-3β [1]): increased the stabilization efficiency

Structure (SMILES): O=C(COc1ccccc1B(O)O)NCCc1ccccc1 [compound 23]
- stabilization of the ChREBPα/14-3-3 PPI, in words (ChREBPα/14-3-3β [1]): inactive

Structure (SMILES): O=C(NCCc1ccccc1)C(Oc1ccccc1P(=O)(O)O)c1ccccc1 (stereo not drawn) [compound 12]
- Active in biochemical assays (ChREBPα/14-3-3β [1]): not active in the biochemical assay
- Cytotoxic in low [glucose] (INS-1 cells [2]): neither generally cytotoxic
- Rescue from glucolipotoxicity (INS-1 cells [3]): nor rescued the cells from glucolipotoxicity

Structure (SMILES): O=C(COc1ccccc1P(=O)(O)O)NCCc1ccc(OCc2ccncc2)cc1 [compound 11]
- stabilization of the ChREBPα/14-3-3 PPI, in words (ChREBPα/14-3-3β [1]): increased the stabilization efficiency

Structure (SMILES): O=C(COc1ccc(OP(=O)(O)O)cc1)NCCc1ccccc1 [compound 19]
- EC50 (ChREBPα/14-3-3β [1]): 17.4 ± 3.2 µM

Structure (SMILES): O=C(COc1ccccc1P(=O)(O)O)NCCc1ccc(OCc2cccnc2)cc1 [compound 10]
- stabilization of the ChREBPα/14-3-3 PPI, in words (ChREBPα/14-3-3β [1]): increased the stabilization efficiency

Structure (SMILES): NC(=O)c1ncn([C@@H]2O[C@H](CO)[C@@H](O)[C@H]2O)c1N [AICAR, reference compound]
- nuclear translocation of ChREBPα (ChREBPα; 1 mM AICAR): translocation of ChREBPα is not blocked

Structure (SMILES): O=C(COc1ccccc1P(=O)(O)O)NCC(F)(F)c1cccc(F)c1 [compound 43]
- Active in biochemical assays (ChREBPα/14-3-3β [1]): active in biochemical assays
- effect on other 14-3-3 client peptides (selectivity) [4]: without affecting any other client peptide
- PPI stabilization with 14-3-3 isoforms [5]: PPI stabilization among all isoforms
- ChREBPα stabilization selectivity among 14-3-3 isoforms [6]: preserved
- Cytotoxic in low [glucose] (INS-1 cells [2]): no cytotoxicity
- Rescue from glucolipotoxicity (INS-1 cells [3]): protected the β-cells from glucolipotoxicity
- glucolipotoxic cell death in INS-1 cells (INS-1 cells [3]; 10 µM 43, kinetics over 72 h): prevented
- cell death in glucolipotoxic conditions, dose response (INS-1 cells [3]): significant attenuation of cell death
- glucose-stimulated proliferation (INS-1 cells [7]): prevented glucose-stimulated proliferation
- β-cell death in glucolipotoxic conditions, in words (human islets, β-cells): remarkable decrease in β-cell death
- GSIS stimulation index, in words (primary human islets [8]): improved glucose-stimulated insulin secretion (GSIS) stimulation index (SI)
- SI in response to KCl (primary human islets [9]): no effect
- insulin content (primary human islets [10]): no effect
- protection from apoptosis due to overexpression of ChREBPβ [11]: unable to protect human islet cells from apoptosis
- interaction between 14-3-3 and ChREBPα (PLA) (ChREBPα/14-3-3): remained unchanged
- 14-3-3 dissociation from NFATC1 (PLA) (NFATC1/14-3-3): glucose promoted 14-3-3 dissociation from NFATC1
- nuclear translocation of ChREBPα (ChREBPα; glucose + palmitate): preventing ChREBPα’s nuclear translocation
- nuclear translocation of ChREBPα (ChREBPα; high glucose): blocked the transient translocation of ChREBPα
- build up of nuclear ChREBPβ, in words (ChREBP): prevents the built up of nuclear ChREBPβ
- upregulation of ChREBPβ at mRNA level (ChREBPβ [12]): prevented upregulation of ChREBPβ
- INS mRNA downregulation (de-differentiation) in glucolipotoxicity (INS): this de-differentiation was prevented
- PDX1 mRNA downregulation (de-differentiation) in glucolipotoxicity (PDX1 [13]): this de-differentiation was prevented
- ALDH1A3 mRNA (ALDH1A3; high glucose or glucolipotoxicity): unaffected
- ALDH1A3 mRNA (ALDH1A3; low glucose): significantly decreased
- other β-cell maturity markers or glucose sensing and processing genes [14]: unchanged
- upregulation of ChREBPβ at protein level (ChREBPβ [15]): prevented upregulation of ChREBPβ
- PDX1 protein levels in glucolipotoxicity (PDX1 [16]): rescued
- glucose response of the TXNIP gene (human TXNIP promoter): prevents the glucose response of the TXNIP gene
- calcium upregulation in response to glucose (INS-1 cells [17]): no effect
- ATP/ADP ratio (INS-1 cells [18]): enhanced mitochondrial activity
- cooperativity factor (α) (ChREBPα/14-3-3β [19]): 72
- Kd (ChREBPα/14-3-3β [20]): 162 µM

Structure (SMILES): O=C(COc1ccccc1P(=O)(O)O)NCC(F)(F)c1ccc(F)c(F)c1 [compound 53]
- Active in biochemical assays (ChREBPα/14-3-3β [1]): active in biochemical assays
- effect on other 14-3-3 client peptides (selectivity) [4]: without affecting any other client peptide
- Cytotoxic in low [glucose] (INS-1 cells [2]): no cytotoxicity
- Rescue from glucolipotoxicity (INS-1 cells [3]): protected the β-cells from glucolipotoxicity
- cell death in glucolipotoxic conditions, dose response (INS-1 cells [3]): significant attenuation of cell death
- β-cell death in glucolipotoxic conditions, in words (human islets, β-cells): remarkable decrease in β-cell death
- cooperativity factor (α) (ChREBPα/14-3-3β [19]): 126
- Kd (ChREBPα/14-3-3β [20]): 110 µM
